The numbers were not newly measured in patent US7320786B2, “Photodynamic therapy treatment for eye disease” (Light Sciences Oncology, Inc., priority 2000, dated 2008), which cites them from elsewhere.

The conditions of the data set: systemically administered photosensitizer, clinical use.
For `CCOC(=O)C1=Cc2c3nc(cc4nc(cc5[n-]c(cc6[n-]c2c(C)c6CC)c(C)c5CC)C(C)=C4CC)[C@@H](C)[C@]13CC.[Cl-].[Cl-].[Sn]` (racemic) [Purlytin], the “duration of skin photosensitivity” value is given as “several”.
As for `Oc1cccc(-c2c3nc(c(-c4cccc(O)c4)c4ccc([nH]4)c(-c4cccc(O)c4)c4nc(c(-c5cccc(O)c5)c5ccc2[nH]5)CC4)C=C3)c1` [Foscan], the “duration of skin photosensitivity” value is on record as “several”.
As for sodium porfimer [Photophrin], the “duration of skin photosensitivity” value is “up to 6 weeks”.
